7 molecules from PubChem BioAssay (NCI) can be followed below.

Some test systems named below: NCI-H23 lung; CCRF-CEM leukemia; OVCAR-3 ovarian; SNB-75 CNS; SK-MEL-2 melanoma; SF-268 CNS; RXF 393 renal; ACHN renal; EKVX NSCLC; UACC-62 melanoma; SF-295 CNS; M14 melanoma; 786-0 renal; PC-3 prostate; MDA-MB-231 breast; NCI/ADR-RES ovarian; SK-MEL-5 melanoma; SR leukemia; CAKI-1 renal; A498 renal.
Common to all, as to assay: growth of human tumour cells (NCI), 48 h

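Assay format: 96-well plates, 48-hour exposure. At the TGI there is no net growth.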 Some results are limits rather than exact numbers.

On to `CC[P+]1(c2ccccc2)[C@@H](C)CC[C@@H]1C`, for which the TGI with NCI-H23 lung, with CCRF-CEM leukemia, in the test on OVCAR-3 ovarian, in the test with SNB-75 CNS, in the test on SK-MEL-2 melanoma and with SF-268 CNS was more than 100 µM in each case. The TGI in the test with RXF 393 renal, in the test on ACHN renal, in the test with EKVX NSCLC, in the test with UACC-62 melanoma, with SF-295 CNS and in the test on M14 melanoma was more than 100 µM in each case. For the same molecule, the TGI in the test with 786-0 renal, with PC-3 prostate, with MDA-MB-231 breast, in the test on NCI/ADR-RES ovarian, in the test on SK-MEL-5 melanoma and with SR leukemia was more than 100 µM in each case. The TGI in the test with CAKI-1 renal and with A498 renal was more than 100 µM each time.
As for `COc1cc2ccc1OCc1cccc(n1)COc1ccc(cc1OC)C=NCCNCCNCCN=C2`, the TGI with NCI-H23 lung, in the test on CCRF-CEM leukemia, in the test with OVCAR-3 ovarian, with SNB-75 CNS, in the test on SK-MEL-2 melanoma and in the test on SF-268 CNS was more than 100 µM in each case. For the same molecule, the TGI in the test with RXF 393 renal, in the test with ACHN renal, in the test on EKVX NSCLC, in the test with UACC-62 melanoma, in the test with M14 melanoma and with 786-0 renal was more than 100 µM throughout. Moreover, the TGI in the test with PC-3 prostate, in the test with MDA-MB-231 breast, with NCI/ADR-RES ovarian, with SK-MEL-5 melanoma, in the test on SR leukemia and in the test on CAKI-1 renal was more than 100 µM in each case. In addition, the TGI in the test on A498 renal is more than 100 µM.
For the molecule `CSCCCNC(=O)c1csc(-c2csc(CCNC(=O)CNC(=O)CNC(=O)OC(C)(C)C)n2)n1`, the TGI with NCI-H23 lung, in the test on CCRF-CEM leukemia, in the test on OVCAR-3 ovarian, in the test with SNB-75 CNS, in the test on SK-MEL-2 melanoma and in the test with SF-268 CNS was more than 100 µM in each case. In addition, the TGI in the test with RXF 393 renal, in the test on ACHN renal, with EKVX NSCLC, in the test with UACC-62 melanoma, in the test on SF-295 CNS and in the test with M14 melanoma was more than 100 µM in each case. Also, the TGI in the test on 786-0 renal, in the test on PC-3 prostate, in the test with MDA-MB-231 breast, in the test with NCI/ADR-RES ovarian, with SK-MEL-5 melanoma and in the test on SR leukemia was more than 100 µM in each case. The TGI with CAKI-1 renal and in the test with A498 renal was more than 100 µM each time.
Regarding `C=CCc1cc(C(Cc2ccccc2)NC(C)C)cc(OCc2ccccc2)c1OCc1ccccc1` (centres undefined), the TGI with NCI-H23 lung is 33.8 µM; in the test on CCRF-CEM leukemia it was 33.5 µM; with OVCAR-3 ovarian it was 30.4 µM; in the test with SNB-75 CNS it was 26.2 µM; in the test with SK-MEL-2 melanoma it was 33.4 µM; in the test with SF-268 CNS, 30 µM. The TGI turned out to be 30.4 µM in the test with RXF 393 renal; 30.5 µM in the test with ACHN renal; 30 µM with EKVX NSCLC; 28.4 µM with UACC-62 melanoma; 31.6 µM with SF-295 CNS; 28.8 µM in the test with M14 melanoma. The TGI was 30.7 µM in the test with 786-0 renal; 28.8 µM with PC-3 prostate; 28.3 µM in the test with MDA-MB-231 breast; 30.7 µM with NCI/ADR-RES ovarian; 30.6 µM with SK-MEL-5 melanoma; 28.5 µM in the test with SR leukemia. Besides, the figures for the TGI in the test with CAKI-1 renal and in the test on A498 renal were 29.5 µM and 29.2 µM, respectively.
As for `CC1(C)CCCCCC(C)(CCCO)C1=O` (centres undefined), the TGI in the test on NCI-H23 lung, with CCRF-CEM leukemia, with OVCAR-3 ovarian, in the test with SNB-75 CNS, in the test with SK-MEL-2 melanoma and in the test with SF-268 CNS was more than 100 µM in each case. The TGI with RXF 393 renal, in the test with ACHN renal, with EKVX NSCLC, with UACC-62 melanoma, in the test with SF-295 CNS and in the test on M14 melanoma was more than 100 µM each time. In addition, the TGI in the test with 786-0 renal, in the test with PC-3 prostate, with MDA-MB-231 breast, with NCI/ADR-RES ovarian, in the test on SK-MEL-5 melanoma and in the test with SR leukemia was more than 100 µM each time. For the same molecule, the TGI in the test on CAKI-1 renal and with A498 renal was more than 100 µM throughout.
For the molecule `CC(C)(C)C1=CC(=C2C=Cc3ccccc3O2)C=C(C(C)(C)C)C1=O`, the TGI was 30.8 µM in the test with NCI-H23 lung; 6.12 µM in the test with CCRF-CEM leukemia; 7.71 µM with OVCAR-3 ovarian; 40 µM in the test on SNB-75 CNS; 4.71 µM in the test on SK-MEL-2 melanoma; more than 34.3 µM in the test with SF-268 CNS. Besides, the TGI in the test on RXF 393 renal is 7.71 µM; in the test on ACHN renal, 19.2 µM; in the test with EKVX NSCLC, 43.6 µM; with UACC-62 melanoma, 8.04 µM; in the test on SF-295 CNS, 18.9 µM; with M14 melanoma it was 10.6 µM. For the same molecule, the TGI in the test on 786-0 renal was 9.55 µM; with PC-3 prostate it was 16.2 µM; in the test with MDA-MB-231 breast, 11.1 µM; in the test with NCI/ADR-RES ovarian it was 14.8 µM; with SK-MEL-5 melanoma it was 13.9 µM; in the test with SR leukemia it was 5.35 µM. The figures for the TGI in the test with CAKI-1 renal and in the test on A498 renal were 29.6 µM and 16.4 µM, respectively.
On to `COC(=O)[C@@H]1CC(C(CN)c2cn(C(=O)OC(C)(C)C)c3ccccc23)C(=O)N1C(=O)OC(C)(C)C` (some centres undefined), for which the TGI in the test on NCI-H23 lung is more than 100 µM; in the test with CCRF-CEM leukemia, 34.8 µM; with OVCAR-3 ovarian, 59.8 µM; in the test with SNB-75 CNS, 33.8 µM; in the test with SK-MEL-2 melanoma, 55.3 µM; in the test on SF-268 CNS, more than 100 µM. Further, the TGI in the test on RXF 393 renal was 46.2 µM; in the test on ACHN renal it was more than 100 µM; in the test on EKVX NSCLC it was 53.8 µM; in the test with UACC-62 melanoma it was 28.8 µM; in the test on SF-295 CNS, 45.2 µM; in the test on M14 melanoma, more than 100 µM. Also, the TGI was more than 100 µM with 786-0 renal; 80.2 µM with PC-3 prostate; 58.6 µM in the test with MDA-MB-231 breast; 55.8 µM in the test on NCI/ADR-RES ovarian; 31.6 µM with SK-MEL-5 melanoma; 43.3 µM in the test with SR leukemia. The TGI with CAKI-1 renal came to 76.3 µM; in the test on A498 renal it was 37.3 µM.
